In PubChem BioAssay AID588381 (NMMLSC, 2011):
Calls of active or inactive are those of the source.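 How the source made its calls: active means half-maximal concentration at most 10 µM from a sound curve fit, with response shifting 30% or more across doses; inactive means the rest.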

Biological target: GTPase HRas (Homo sapiens) (UniProt P01112)
Assay: activated H-Ras mutant GTP-binding inhibitors, SAR follow-up, selectivity assay for Cdc42 probe extension project, biochemical, multiplex bead flow cytometry, round 1 (AID 588381)
Conditions: GST-H-Ras act beads, Bodipy-FL-GTP binding; for response, lower = inhibition: at 100 µM (top of the series)

Sequence of GTPase HRas (Homo sapiens) (P01112 whole entry, looked up): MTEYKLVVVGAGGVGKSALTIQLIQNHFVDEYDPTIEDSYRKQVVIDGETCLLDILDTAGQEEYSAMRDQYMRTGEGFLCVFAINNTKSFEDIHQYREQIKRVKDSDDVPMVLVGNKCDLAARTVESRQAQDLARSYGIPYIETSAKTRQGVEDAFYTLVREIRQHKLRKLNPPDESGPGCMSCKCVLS

| Structure (SMILES) | response, lower = inhibition | EC50 [nM] |
| --- | --- | --- |
| NS(=O)(=O)c1ccc(N2N=C(c3ccccc3)CC2c2ccccc2)cc1 (centres undefined) | inactive | – |
| O=C(C#Cc1ccccc1)c1cccc([N+](=O)[O-])c1 | inactive | – |
| COc1ccc(C2CC(c3ccccc3)=NN2c2ccc(S(N)(=O)=O)cc2)cc1 (centres undefined) | inactive | – |
| CC1(C)Cc2c(sc(NC(=S)NC(=O)c3ccccc3)c2C(=O)O)CO1 | – | 82 |
